“Also recorded” adds a separate entry of the source. Where two headings read alike, the source gives them in different places.
Columns and labels:
[1] = biological target: T1, Human recombinant MAO-B (hMAO-B) (Homo sapiens, UniProt P27338); assay: Monoamine oxidase enzyme assay (Amplex Red), MAO-B; assay type: biochemical; settings: for inhibition at 10 µM: read-out: Inhibition percent of MAO-B; for IC50: as given in abstract; for SI (selectivity index), IC50 (MAO-A)/IC50 (MAO-B): selectivity for the MAO-B isoform
T1 construct: purchased Sigma-Aldrich (St. Louis, MO); host or cells: insect cells
T1 sequence (P27338 1-520): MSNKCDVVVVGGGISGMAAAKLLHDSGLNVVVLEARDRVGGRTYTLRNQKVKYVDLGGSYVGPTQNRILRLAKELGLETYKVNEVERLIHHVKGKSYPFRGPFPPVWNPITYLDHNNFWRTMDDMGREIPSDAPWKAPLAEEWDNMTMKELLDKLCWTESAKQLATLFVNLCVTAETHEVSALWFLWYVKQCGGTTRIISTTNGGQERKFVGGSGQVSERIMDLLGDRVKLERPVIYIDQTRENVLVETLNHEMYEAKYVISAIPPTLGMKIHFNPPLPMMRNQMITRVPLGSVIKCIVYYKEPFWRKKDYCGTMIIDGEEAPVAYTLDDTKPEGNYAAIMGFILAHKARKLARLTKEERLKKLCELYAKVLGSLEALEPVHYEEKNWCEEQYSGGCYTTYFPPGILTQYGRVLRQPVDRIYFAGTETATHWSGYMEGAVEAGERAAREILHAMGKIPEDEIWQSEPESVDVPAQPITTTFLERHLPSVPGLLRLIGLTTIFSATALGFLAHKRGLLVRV
Description: (§1) The inhibitory activity of MAO-A, B enzyme of the compounds was evaluated based on previously described method. The MAO activity was measured in relative fluorescence units (RFUs) evoked by peroxidase-catalyzed oxidation of Amplex Red® to resorufin, in which H2O2 generated by MAO reaction was used as the electron donor. Human recombinant MAO-A (hMAO-A) and MAO-B (hMAO-B) enzyme expressed in insect cells were obtained from Sigma-Aldrich (St. Louis, MO). The 2 μL of test compound in DMSO (final concentration: 1 nM to 10 μM) was treated with 98 μL of hMAO enzyme solution in 50 mM sodium phosphate buffer (pH 7.4, final protein amounts: ∼1.25 μg protein/well for MAO-A and ∼2.5 μg protein/well for MAO-B) on 96-well black plate and incubated for 15 min at 37 °C. Then, 100 μL of reaction working solution which is mixed solution of 400 μM Amplex Red® (Cayman, Ann Arbor, MI, final concentration: 200 μM), 2 U/mL horseradish peroxidase (Sigma-Aldrich, St. Louis, MO, final concentration: 1 U/mL) and 2 mM substrate (p-tyramine for MAO-A, benzylamine for MAO-B, Sigma-Aldrich, St. Louis, MO, final concentration: 1 mM) in 50 mM sodium phosphate buffer (pH 7.4) were added and incubated for 20 min at 37 °C in the dark. The fluorescent intensity was quantified using a microplate reader (SpectraMax®i3, Molecular Devices, Sunnyvale, CA) with an excitation at 545 nm and an emission at 590 nm. The 50% inhibitory concentrations (IC50) of compounds were determined as the mean ± SEM in triplicate from the dose–response inhibition curves using SigmaPlot® 13.0 (Palo Alto, CA).
The target compounds 4a−l were biologically evaluated for their potential inhibitory activities over human MAO-B recombinant enzyme. The enzyme inhibition assay of the tested compounds was conducted using Amplex® Red reagent technology which offers quantitative enzyme activity sensitive detection with extended dynamic range compared to classic colorimetric oxidase assays in addition to its advantage of the fluorescence emission outside the range of compound autofluorescence (if any). Since Amplex® Red reagent is a colourless substrate able to react with H2O2 with a 1:1 stoichiometry to yield highly fluorescent resorufin, the elicited inhibitory activities of the tested compounds over MAO-B were evaluated via spectrophotometrical measurement and the fluorescence rate of the resorufin dye formation was detected. As mentioned previously, all the target compounds were designed to incorporate the same amide moiety in VI and VII at position 5 of the indole scaffold connecting one of three different heteroaromatic cycles with the indole core which is substituted with either aromatic or aliphatic moiety. […] In addition, we noticed that the benzyl and benzoyl moieties, bearing the electron-withdrawing 3- or 4-fluoro groups in 4a−f, exerted better inhibition than the pyridylmethyl substituent (4g−i). […] It is also noteworthy to mention that the three different heteroaryl cycles incorporated in our design (pyridazine, pyrazine, and pyridine) were represented in each of the last three compounds.
The inhibitory potencies (IC50 values) of compounds producing inhibition of MAO-B activity by more than 50% were determined using five doses assay with 10, 1, 0.1, 0.01, and 0.001 μM concentrations of the tested compounds. Consequently, analogues 4b and 4e were further evaluated to determine their IC50 over MAO-B in triplicate from the dose response inhibition curves using Sigma-Plot software version 13.0 as indicated in Figure 3.

MAO-A = tested on: MAO-A; parameters: method as in PMID 24955776; settings: cited from earlier work
human MAO-B = tested on: human MAO-B; parameters: method as in PMID 24955776; settings: cited from earlier work
[2] = biological target: T2, Human recombinant MAO-A (hMAO-A) (Homo sapiens, UniProt P21397); assay: Monoamine oxidase enzyme assay (Amplex Red), MAO-A selectivity assay; assay type: biochemical; settings: for inhibition at 100 µM: single dose of 100 µM of compound
T2 construct: purchased Sigma-Aldrich (St. Louis, MO); host or cells: insect cells
T2 sequence (P21397 1-527): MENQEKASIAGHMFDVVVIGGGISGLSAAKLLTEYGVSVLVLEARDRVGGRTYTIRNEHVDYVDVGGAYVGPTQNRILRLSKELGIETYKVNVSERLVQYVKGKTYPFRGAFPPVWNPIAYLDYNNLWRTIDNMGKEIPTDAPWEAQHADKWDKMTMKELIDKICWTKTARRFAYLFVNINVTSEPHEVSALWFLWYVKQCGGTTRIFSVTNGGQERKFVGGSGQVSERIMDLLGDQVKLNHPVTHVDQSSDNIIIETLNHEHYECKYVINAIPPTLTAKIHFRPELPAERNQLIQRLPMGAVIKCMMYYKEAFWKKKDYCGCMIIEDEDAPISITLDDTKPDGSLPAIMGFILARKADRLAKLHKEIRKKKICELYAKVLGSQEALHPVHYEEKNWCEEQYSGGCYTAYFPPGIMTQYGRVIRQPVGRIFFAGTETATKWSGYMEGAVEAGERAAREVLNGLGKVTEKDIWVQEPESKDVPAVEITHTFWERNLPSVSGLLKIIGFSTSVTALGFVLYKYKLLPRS
Description: as §1
It is known that non-selective (MAO-A/B combined) inhibitors lead to several problems when taken concomitantly with tyramine-containing foods (such as cheese) since the drug's inhibition of MAO-A causes a dangerous elevation of serum tyramine levels, which can cause hypertensive symptoms. […] To calculate the selectivity index (SI: the selectivity for the MAO-B isoform given as the ratio of IC50 (MAO-A)/IC50 (MAO-B)), IC50 values of both compounds have been identified and found to be more than 100 µM. Consequently, the selectivity indices were calculated as illustrated in Table 2.

hMAO-B enzyme = biological target: T3, hMAO-B enzyme (Homo sapiens, UniProt P27338); assay: Kinetic study of MAO-B inhibition mode (Michaelis-Menten, Lineweaver-Burk); assay type: biochemical
T3 construct: purchased Sigma-Aldrich (St. Louis, MO); host or cells: insect cells
T3 sequence (P27338 1-520): T1 sequence (P27338 1-520)
Description: The type of MAO-B inhibition of compound 4e was determined by the Michaelis–Menten kinetic study. The catalytic rates of hMAO-B enzyme in the absence or in the presence of three different concentrations (10, 30, and 100 nM) of compound 4e were measured at seven different concentrations of the benzylamine (0.065, 0.125, 0.25, 0.5, 1, 2, and 4 mM). The corresponding progression curves and the Lineweaver–Burk plots were generated using GraphPad Prism 7 (La Jolla, CA). The maximal velocity (Vmax), the Michaelis constant (Km), and the inhibition constant (Ki) were calculated using SigmaPlot® 13.0 (Palo Alto, CA).
Detailed substrate-dependent kinetic experiments were carried out to examine the mode of MAO-B inhibition of compound 4e. The initial rates of MAO-B inhibition in the absence and presence of 4e were measured at various concentrations of benzylamine, a selective substrate for MAO-B, and both Michaelis–Menten and the Lineweaver–Burk plots are depicted in Figure 4. The Lineweaver–Burk plots for three different concentration of 4e were linear and intersected at the y-axis.

[3] = single dose of 10 µM of compound

SMILES | inhibition at 10 µM [1, 3] | melting point | other results
O=C(Nc1ccc2c(ccn2C(=O)c2cccc(F)c2)c1)c1cccnc1 [4f, N-(1-(3-fluorobenzoyl)-1H-indol-5-yl)nicotinamide] | 30.29 ± 0.24% | 212.9 to 214.2 °C | –
Cn1cc(C(=O)Nc2ccc3[nH]ncc3c2)ccc1=O [V] | – | – | IC50 (MAO-A): > 10 µM; Activity over human MAO-B (in words) (human MAO-B): totally inactive; IC50 (human MAO-B): > 10 µM
O=C(Nc1ccc2c(ccn2C(=O)c2cccc(F)c2)c1)c1cnccn1 [4e, N-(1-(3-fluorobenzoyl)-1H-indol-5-yl)pyrazine-2-carboxamide] | 66.4 ± 0.79% | 221.3 to 222.2 °C | IC50 [2]: > 100 µM; inhibition at 100 µM [2]: 4.76 ± 0.59%; IC50 [1]: 0.78 µM; SI (selectivity index), IC50 (MAO-A)/IC50 (MAO-B) [1]: >120; Mode of MAO-B inhibition (hMAO-B enzyme; Lineweaver-Burk plots intersected at the y-axis): competitive; also recorded: reversible; Ki (hMAO-B enzyme; substrate benzylamine, 10, 30, 100 nM of 4e, read-out: Inhibition constant (Ki) MAO-B): 0.0945 µM
O=C(Nc1ccc2c(ccn2Cc2ccccn2)c1)c1cccnc1 [4i, N-(1-(pyridin-2-ylmethyl)-1H-indol-5-yl)nicotinamide] | 1.81 ± 0.85% | 142.9 to 144.3 °C | –
O=C(Nc1ccc2[nH]ncc2c1)c1c(F)cccc1Cl [VII] | – | – | IC50 (MAO-A): > 10 µM; IC50 (human MAO-B): 3.3 µM
O=C(Nc1ccc2[nH]ncc2c1)c1cccc(Cl)c1Cl [VI] | – | – | IC50 (MAO-A): > 10 µM; IC50 (human MAO-B): 2.59 µM
Cn1ccc2cc(NC(=O)c3cnccn3)ccc21 [4k, N-(1-methyl-1H-indol-5-yl)pyrazine-2-carboxamide] | 49.7 ± 0.68% | 172.5 to 174 °C | –
O=C(Nc1ccc2c(ccn2Cc2ccccn2)c1)c1cnccn1 [4h, N-(1-(pyridin-2-ylmethyl)-1H-indol-5-yl)pyrazine-2-carboxamide] | 2.38 ± 0.66% | 152 to 152.9 °C | –
Cn1ccc2cc(NC(=O)c3ccnnc3)ccc21 [4j, N-(1-methyl-1H-indol-5-yl)pyridazine-4-carboxamide] | 9.52 ± 0.61% | 181.1 to 182 °C | –
C#CCN[C@@H]1CCc2ccccc21 [rasagiline] | – | – | SI (selectivity index) for MAO-B (human MAO-B; calculated SI): > 50
O=C(Nc1ccc2c(ccn2Cc2ccccn2)c1)c1ccnnc1 [4g, N-(1-(pyridin-2-ylmethyl)-1H-indol-5-yl)pyridazine-4-carboxamide] | 1.83 ± 0.75% | 141.8 to 143 °C | –
O=C(Nc1ccc2c(ccn2C(=O)c2cccc(F)c2)c1)c1ccnnc1 [4d, N-(1-(3-fluorobenzoyl)-1H-indol-5-yl)pyridazine-4-carboxamide] | 19.1 ± 0.47% | 196.7 to 196.9 °C | –
O=C(Nc1ccc2c(ccn2Cc2ccc(F)cc2)c1)c1cccnc1 [4c, N-(1-(4-fluorobenzyl)-1H-indol-5-yl)nicotinamide] | 11.2 ± 0.24% | 200 to 200.4 °C | –
O=C(Nc1ccc2c(ccn2Cc2ccc(F)cc2)c1)c1ccnnc1 [4a, N-(1-(4-fluorobenzyl)-1H-indol-5-yl)pyridazine-4-carboxamide] | 13.2 ± 3.32% | 212.6 to 213.1 °C | –
Cn1ccc2cc(NC(=O)c3cccnc3)ccc21 [4l, N-(1-methyl-1H-indol-5-yl)nicotinamide] | 11.6% | 164.2 to 164.9 °C | –
O=C(Nc1ccc2c(ccn2Cc2ccc(F)cc2)c1)c1cnccn1 [4b, N-(1-(4-fluorobenzyl)-1H-indol-5-yl)pyrazine-2-carboxamide] | – | – | IC50 [2]: > 100 µM; inhibition at 100 µM [2]: 12.9 ± 1.09%; IC50 [1]: 1.65 µM; inhibition at 10 µM [1]: 88.49 ± 0.13%; SI (selectivity index), IC50 (MAO-A)/IC50 (MAO-B) [1]: >60
